Experimental data: the NIST ThermoML archive (doi:10.1016/j.fluid.2008.03.004)

Assay: xn = mol fraction of the nth substance listed
Details: 101 kPa, Liquid; for speed of sound: Sing-around technique in a fixed-path interferometer

CCOC(C)(C)C [2-ethoxy-2-methylpropane] + Cc1ccc(C)cc1
Details	mass density [kg/m3]	speed of sound [m/s]
305.65 K, x1 = 0.062	842.155	–
305.65 K, x1 = 0.123	834.557	–
305.65 K, x1 = 0.238	820.611	–
305.65 K, x1 = 0.35	806.841	–
305.65 K, x1 = 0.455	793.966	–
305.65 K, x1 = 0.557	781.512	–
305.65 K, x1 = 0.654	769.583	–
305.65 K, x1 = 0.746	758.333	–
305.65 K, x1 = 0.834	747.515	–
305.65 K, x1 = 0.902	739.137	–
305.65 K, x1 = 0.959	732.166	–
305.65 K, x1 = 1	727.038	–
308.15 K, x1 = 0.062	839.962	1248.7
308.15 K, x1 = 0.123	832.343	1231.1
308.15 K, x1 = 0.238	818.339	1198.4
308.15 K, x1 = 0.35	804.54	1166.7
308.15 K, x1 = 0.455	791.627	1137.1
308.15 K, x1 = 0.557	779.104	1108.3
308.15 K, x1 = 0.654	767.142	1081.2
308.15 K, x1 = 0.746	755.854	1055.7
308.15 K, x1 = 0.834	745.002	1031.6
308.15 K, x1 = 0.902	736.575	1012.8
308.15 K, x1 = 0.959	729.598	997.44
308.15 K, x1 = 1	724.443	986.39
310.65 K, x1 = 0.062	837.759	1238.5
310.65 K, x1 = 0.123	830.128	1220.9
310.65 K, x1 = 0.238	816.051	1188
310.65 K, x1 = 0.35	802.206	1156.1
310.65 K, x1 = 0.455	789.243	1126.3
310.65 K, x1 = 0.557	776.705	1097.6
310.65 K, x1 = 0.654	764.679	1070.4
310.65 K, x1 = 0.746	753.335	1044.9
310.65 K, x1 = 0.834	742.455	1020.6
310.65 K, x1 = 0.902	733.99	1001.8
310.65 K, x1 = 0.959	726.994	986.36
310.65 K, x1 = 1	721.826	975.42
313.15 K, x1 = 0.062	835.532	1228.3
313.15 K, x1 = 0.123	827.882	1210.7
313.15 K, x1 = 0.238	813.765	1177.8
313.15 K, x1 = 0.35	799.872	1145.7
313.15 K, x1 = 0.455	786.866	1115.8
313.15 K, x1 = 0.557	774.27	1087
313.15 K, x1 = 0.654	762.204	1059.7
313.15 K, x1 = 0.746	750.812	1034.1
313.15 K, x1 = 0.834	739.901	1009.8
313.15 K, x1 = 0.902	731.4	990.86
313.15 K, x1 = 0.959	724.383	975.56
313.15 K, x1 = 1	719.179	964.53
315.65 K, x1 = 0.062	833.306	1218.3
315.65 K, x1 = 0.123	825.641	1200.6
315.65 K, x1 = 0.238	811.445	1167.5
315.65 K, x1 = 0.35	797.52	1135.4
315.65 K, x1 = 0.455	784.471	1105.4
315.65 K, x1 = 0.557	771.824	1076.4
315.65 K, x1 = 0.654	759.71	1049.1
315.65 K, x1 = 0.746	748.28	1023.4
315.65 K, x1 = 0.834	737.319	998.93
315.65 K, x1 = 0.902	728.791	980.02
315.65 K, x1 = 0.959	721.749	964.74
315.65 K, x1 = 1	716.527	953.54
318.15 K, x1 = 0.062	831.175	1208.1
318.15 K, x1 = 0.123	823.476	1190.2
318.15 K, x1 = 0.238	809.233	1157
318.15 K, x1 = 0.35	795.26	1124.9
318.15 K, x1 = 0.455	782.164	1094.8
318.15 K, x1 = 0.557	769.47	1065.8
318.15 K, x1 = 0.654	757.309	1038.5
318.15 K, x1 = 0.746	745.827	1012.6
318.15 K, x1 = 0.834	734.831	988.25
318.15 K, x1 = 0.902	726.264	969.29
318.15 K, x1 = 0.959	719.189	953.77
318.15 K, x1 = 1	713.96	942.67
320.65 K, x1 = 0.062	828.907	1197.9
320.65 K, x1 = 0.123	821.186	1180
320.65 K, x1 = 0.238	806.89	1146.7
320.65 K, x1 = 0.35	792.863	1114.4
320.65 K, x1 = 0.455	779.723	1084.3
320.65 K, x1 = 0.557	766.974	1055.2
320.65 K, x1 = 0.654	754.765	1027.7
320.65 K, x1 = 0.746	743.239	1001.8
320.65 K, x1 = 0.834	732.197	977.45
320.65 K, x1 = 0.902	723.589	958.35
320.65 K, x1 = 0.959	716.494	942.81
320.65 K, x1 = 1	711.25	931.73
323.15 K, x1 = 0.062	826.773	1187.7
323.15 K, x1 = 0.123	819.029	1169.7
323.15 K, x1 = 0.238	804.681	1136.3
323.15 K, x1 = 0.35	790.599	1103.9
323.15 K, x1 = 0.455	777.399	1073.7
323.15 K, x1 = 0.557	764.613	1044.6
323.15 K, x1 = 0.654	752.347	1017.1
323.15 K, x1 = 0.746	740.77	991.05
323.15 K, x1 = 0.834	729.685	966.6
323.15 K, x1 = 0.902	721.039	947.53
323.15 K, x1 = 0.959	713.92	931.92
323.15 K, x1 = 1	708.642	920.73
